Read-outs that look alike come from different tables or passages of the source.
Assays:
[1] = cited from earlier work
[2] = cited from earlier work; remark: listed apart in the source
[3] = ×5 in mice; cited from earlier work
[4] = system: neuroblastoma IMR-32 cells; test: CellTiter 96 tumor cell proliferation assay; assay type: cell-based; settings: conjugate compared to non-conjugated methotrexate
Method: A CellTiter 96 cell proliferation kit was used according to the described protocols (Promega Corporation, Madison, Wis.)). Culture medium (50 μl) containing various concentrations of different peptides was added respectively in each well of the 96-well kit plates followed by 50 μl of a suspension containing 5,000 cultured IMR-32 tumor cells. The plate was incubated at 37° C. for different times up to and including 7 days in a humidified, 5% CO2 atmosphere. Kit dye solution (15 μl ) was added to each well and the plate incubated the plates at 37° C. for 4 hours in a humidified, 5% CO2 atmosphere. After 4 hours, 100 μl of the solubilization/stop solution were added to each well and incubation was continued at 37° C. for 1 hour or more until complete solubilization of the formazan crystals occurred. Absorbencies of individual well solutions were then measured at 570 nm wavelength using a 96 well plate reader.

[5] = 1×iv, mice; cited from earlier work
[6] = rat, in vivo, ip
Method: The solution was divided into three equal parts not exceeding 2 mL and injected intraperitoneally into each rat. Urine and feces were collected on an adsorbent pad overnight. At 24 hours, the rats were killed, dissected and each of the below organs were weighed and counted in a dose calibrator.

[7] = biological target: GH release from primary cultures of rat pituitary cells (somatostatin subtype 2 rat receptor related system) (Rattus norvegicus, UniProt P30680); test: Inhibition of GH release from primary cultures of rat pituitary cells; assay type: cell-based; settings: GH stimulated with 1 nM GRH(1-29)NH2, 3 h
Method: This is a primary system for evaluating SRIF analog potency and can be considered a somatostatin subtype 2 rat receptor related system which historically also correlates well with human subtype 2 binding.
Anterior pituitaries from adult male rats weighing 200-250 g and housed under controlled conditions (lights on from 0500-1900 h), are dispersed using aseptic techniques by a trypsin/DNase method. The dispersed cells are diluted with sterile-filtered Dulbecco's modified Eagle medium (MEM) (Gibco Laboratories, Grand Island, N.Y. (GIBCO)), which is supplemented with 2.5% fetal calf serum (GIBCO), 3% horse serum (GIBCO), 10% fresh rat serum (stored on ice for no longer than 1 h) from the pituitary donors, 1% MEM nonessential amino acids (GIBCO), gentamycin (10 ng/ml; Sigma), and nystatin (10,000 U/ml; GIBCO). The cells are counted with a hemacytometer (approximately 2,000,000 cells per pituitary) and randomly plated at a density of 200,000 cells per well (Co-star cluster 24; Rochester Scientific Co., Rochester, N.Y.). […]
In preparation for a hormone challenge, the cells are washed 3× with medium 199 (GIBCO) to remove old medium and floating cells. […] GH in plasma and media is measured by a standard double antibody RIA using components supplied by the NIDDK and the National Hormone and Pituitary Program.

Sequence of GH release from primary cultures of rat pituitary cells (somatostatin subtype 2 rat receptor related system) (P30680 whole entry): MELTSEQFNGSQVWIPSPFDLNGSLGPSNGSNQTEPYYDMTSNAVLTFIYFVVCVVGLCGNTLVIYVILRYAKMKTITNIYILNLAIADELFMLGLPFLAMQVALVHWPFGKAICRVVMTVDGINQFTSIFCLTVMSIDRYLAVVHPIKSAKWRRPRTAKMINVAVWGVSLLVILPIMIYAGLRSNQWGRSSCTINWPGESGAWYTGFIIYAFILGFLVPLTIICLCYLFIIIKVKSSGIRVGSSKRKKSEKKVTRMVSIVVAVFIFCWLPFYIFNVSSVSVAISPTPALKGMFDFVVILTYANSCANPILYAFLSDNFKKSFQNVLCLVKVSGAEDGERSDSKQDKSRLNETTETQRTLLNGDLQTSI

In the case of `N.N.[Cl][Pt][Cl]` [Cis-Pt], the MTD ([1]; in man) is listed as 100 mg/m^2.

For `CC(=O)O[C@@]12CO[C@@H]1C[C@H](O)[C@@]1(C)C(=O)[C@H](O)C3=C(C)[C@@H](OC(=O)[C@H](O)[C@@H](NC(=O)OC(C)(C)C)c4ccccc4)C[C@@](O)([C@@H](OC(=O)c4ccccc4)[C@H]21)C3(C)C` [Docetaxel], the MTD ([2]; in vivo) is listed as 60-100 mg/m^2.

For `O=c1[nH]c(=O)n([C@H]2C[C@H](O)[C@@H](CO)O2)cc1F` [FUDR], the MTD [3] is listed as 100 mg/kg and the MTD ([1]; in human i.a.) is listed as 0.6 mg/kg/day.

In the case of `Nc1nc(F)nc2c1ncn2[C@@H]1O[C@H](COP(=O)(O)O)[C@@H](O)[C@@H]1O` [Fludarabine-P04], the MTD ([2]; ×5 days) is listed as 25 mg/m^2/day.

For `NC(=O)NO` [Hydroxyurea], the MTD ([1]; in man) is listed as 35 mg/kg/day.

In the case of `O=c1[nH]cc(F)c(=O)[nH]1` [Peptide 5-FU, 5-FU], the MTD ([2]; ×5 days) is given as 500 mg/m^2/day.

For `CCCCCOC(=O)Nc1nc(=O)n([C@@H]2O[C@H](C)[C@@H](O)[C@H]2O)cc1F` [capecitabine], the MTD ([2]; orally) is listed as 2.5 g/m^2.

In the case of `N.N.O=C([O-])C1(C(=O)[O-])CCC1.[Pt+2]` [carbo-Pt], the MTD ([1]; in man) is listed as 360 mg/m^2.

For `Nc1ccn([C@@H]2O[C@H](CO)[C@@H](O)[C@@H]2O)c(=O)n1` [cytarabine], the MTD ([2]; in vivo) is listed as 100 mg/m^2/day.

For `COc1cc([C@@H]2c3cc4c(cc3[C@@H](O[C@@H]3O[C@@H]5CO[C@@H](C)O[C@H]5[C@H](O)[C@H]3O)[C@H]3COC(=O)[C@H]23)OCO4)cc(OC)c1O` [etoposide], the MTD ([1]; in man) is given as 100 mg/m^2.

In the case of `Nc1ccn([C@@H]2O[C@H](CO)[C@@H](O)C2(F)F)c(=O)n1` [gemcitabine], the MTD ([2]; in vivo) is given as 1000 mg/m^2.

In the case of `CCc1c2c(nc3ccc(OC(=O)N4CCC(N5CCCCC5)CC4)cc13)-c1cc3c(c(=O)n1C2)COC(=O)[C@]3(O)CC` [irinotecan], the MTD ([2]; 1×/wk depending on patient response) is listed as 50-150 mg/m^2.

For `CN(Cc1cnc2nc(N)nc(N)c2n1)c1ccc(C(=O)N[C@@H](CCC(=O)O)C(=O)O)cc1` [methotrexate], the “Inhibitory effects on proliferation of IMR-32 cells (potency comparison, FIG. 1)” value [4] is listed as “equivalent potencies”, the MTD ([2]; i.v. w/o leuco) is listed as under 500 mg/m^2 and the MTD ([2]; i.v.+leuco.) is listed as 15 gm/m^2.

For `O=C1c2c(O)ccc(O)c2C(=O)c2c(NCCNCCO)ccc(NCCNCCO)c21` [mitoxantrone], the MTD ([2]; in vivo) is listed as 12-14 mg/m^2.

For `NC(=O)c1ncn2c(=O)n(CCCl)nnc12` [mitozolomide], the MTD ([2]; in vivo) is given as over 400 mg/m^2.

For `CC[C@@]1(O)C(=O)OCc2c1cc1n(c2=O)Cc2cc3c(CN(C)C)c(O)ccc3nc2-1` [topotecan], the MTD ([1]; in humans) is given as 1.5 mg/m^2/day and the LD10 [5] is given as 75 mg/m^2.

In the case of `CC[C@]1(O)C[C@H]2CN(CCc3c([nH]c4ccccc34)[C@@](C(=O)OC)(c3cc4c(cc3OC)N(C=O)[C@H]3[C@@](O)(C(=O)OC)[C@H](OC(C)=O)[C@]5(CC)C=CCN6CC[C@]43[C@@H]65)C2)C1` [vincristine], the MTD ([2]; in vivo) is listed as 1.4 mg/m^2.

For `CCC1=C[C@@H]2CN(C1)Cc1c([nH]c3ccccc13)[C@@](C(=O)OC)(c1cc3c(cc1OC)N(C)[C@H]1[C@@](O)(C(=O)OC)[C@H](OC(C)=O)[C@]4(CC)C=CCN5CC[C@]31[C@@H]54)C2` [vinorelbine], the MTD ([2]; in vivo) is listed as 30 mg/m^2/wk.

For “D-Ser-D-Ser-D-Ser-D-Ser-D-Ser-L-Lys-D-Tyr-D-Ser-cyclo[L-Cys-L-Phe-D-Trp-L-Lys-L-Thr-L-Cys]-L-Thr-NH2 [JF-08-53]”, the “Elimination of labeled peptide in urine and feces (FIG. 2)” value [6] was “rapid and high efficiency elimination” and the IC50 [7] was 0.086 nM.

For bleomycin, the MTD ([2]; in vivo) is given as 20 mg/m^2.

From US7326685B2, “Diagnostic or therapeutic somatostatin or bombesin analog conjugates and uses thereof” (The Administrators of the Tulane Educational Fund, priority 2001, dated 2008)
